Assay results: patent US7312330B2, “Bicycloheteroarylamine compounds as ion channel ligands and uses thereof” (Renovis, Inc., priority 2003, dated 2007)

Target: hVR1 (Homo sapiens, UniProt Q8NER1)
Experiment: Calcium imaging assay (Fura2) of VR1 antagonists, proton stimulation
Assay type: cell-based
Conditions: HEK 293 cells expressing hVR1; for % Inhibition @ 1 μM: calcium ion influx induced by proton stimulation (pH 5.7); for IC50: calcium ion influx induced by proton stimulation
Excerpt: VR1 protein is a heat-gated cation channel that exchanges about 10 calcium ions for every sodium ion resulting in neuronal membrane depolarization and elevated intracellular calcium ion levels. Therefore the functional activity of compounds at the VR1 receptor may be determined by measuring changes in intracellular calcium levels in 293 cells expressing capsaicin-insensitive VR1 receptor variants. A dual wavelength ratiometric dye, Fura2, was used as an indicator of relative levels of calcium ions in a 96 well format using a bench top scanning fluorometer with integrated fluidics and temperature control (Flex Station, Molecular Devices).
A dual wavelength ratiometric dye, Fura2, was used as an indicator of relative levels of [Ca2+] in a 96 well format using a bench top scanning fluorometer with integrated fluidics and temperature control (Flex Station, Molecular Devices).
HEK 293 cells expressing hVR1 were grown on PDL coated 96-well black-walled plates, in the presence of a DMEM medium containing 5% Penstrep, 5% Glutamax, 200 ug/mL Hygromycin, 5 μg/mL Blasticide and 10% heat inactivated FBS. Prior to assay, the cells were loaded with 5 μg/mL Fura2 in normal saline solution at 37° C. for 40 minutes. Cells were then washed with normal saline to remove the dye.
The assay consists of two stages; a pre-treatment phase followed by a treatment phase. In the pretreatment phase, 50 μl of a compound solution was added to the cells. Immediately following, 50 μl of the test compound in the presence of agonist (a saline solution plus 10 mM citric acid bufferd to pH 5.7 with HCl) was added. Fura2 was excited at […] to indicate relative calcium concentration. Changes in wavelength measurements were made throughout the course of the experiment in 4 second intervals over a period of 3 minutes. The fluorescence ratio from the excitations at […] was recorded for analysis. Responses were measured as peak fluorescence ratio after compound-agonist addition minus baseline fluorescence ratio prior to treatment and were calculated for each concentration tested using the SoftMaxPro software. Data was expressed as percentage inhibition calculated as follows: […]
A dose response curve was then determined, from which the ID50 of each compound was calculated.

hVR1, sequence (Q8NER1 whole entry): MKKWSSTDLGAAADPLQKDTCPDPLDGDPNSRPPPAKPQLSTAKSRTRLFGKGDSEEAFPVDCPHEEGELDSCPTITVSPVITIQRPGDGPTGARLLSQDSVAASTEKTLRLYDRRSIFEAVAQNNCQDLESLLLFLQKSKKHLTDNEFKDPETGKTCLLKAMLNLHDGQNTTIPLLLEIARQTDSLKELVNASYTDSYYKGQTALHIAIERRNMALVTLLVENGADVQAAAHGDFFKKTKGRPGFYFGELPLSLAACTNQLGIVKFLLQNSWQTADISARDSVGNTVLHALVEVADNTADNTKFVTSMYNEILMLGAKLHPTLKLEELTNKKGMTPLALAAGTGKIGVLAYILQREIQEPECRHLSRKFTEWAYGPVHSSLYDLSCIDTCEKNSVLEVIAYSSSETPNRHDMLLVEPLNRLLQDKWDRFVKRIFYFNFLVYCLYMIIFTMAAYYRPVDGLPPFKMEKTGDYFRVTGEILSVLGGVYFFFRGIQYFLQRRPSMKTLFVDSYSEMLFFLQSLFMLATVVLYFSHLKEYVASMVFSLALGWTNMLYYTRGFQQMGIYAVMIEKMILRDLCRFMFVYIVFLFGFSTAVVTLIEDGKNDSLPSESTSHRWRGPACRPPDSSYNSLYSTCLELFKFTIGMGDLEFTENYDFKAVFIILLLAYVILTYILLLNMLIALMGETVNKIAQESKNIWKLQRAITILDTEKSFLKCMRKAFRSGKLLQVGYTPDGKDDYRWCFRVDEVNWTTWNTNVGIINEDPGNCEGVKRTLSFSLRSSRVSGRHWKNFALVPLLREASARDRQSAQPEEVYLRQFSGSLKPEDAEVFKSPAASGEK

Structure (SMILES)	% Inhibition @ 1 μM	IC50 [nM]
CC(=O)N1CC(C)(C)c2ccc(Nc3ncnc4c3CCN(c3ncccc3Cl)C4)cc21 [Example 68, 1-(6-(7-(3-Chloropyridin-2-yl)-5,6,7,8-tetrahydropyrido[3,4-d]pyrimidin-4-ylamino)-3,3-dimethylindolin-1-yl)ethanone]	+++ (compound exhibited 51-75% inhibition of calcium ion influx induced by proton stimulation)	501 to 1000
CC(C)(C)c1ccc(Nc2ncnc3c2CCN(c2ncccc2Cl)C3)cn1 [Example 49, N-(6-tert-Butylpyridin-3-yl)-7-(3-chloropyridin-2-yl)-5,6,7,8-tetrahydropyrido[3,4-d]pyrimidin-4-amine]	++++ (compound exhibited 76% or greater inhibition of calcium ion influx induced by proton stimulation)	–
Clc1ccc(CCNc2ncnc3c2CCN(c2ncccc2Cl)C3)cc1 [Example 40, N-(4-Chlorophenethyl)-7-(3-chloropyridin-2-yl)-5,6,7,8-tetrahydropyrido[3,4-d]pyrimidin-4-amine]	+++ (compound exhibited 51-75% inhibition of calcium ion influx induced by proton stimulation)	> 1000
COc1cccc(Nc2ncnc3c2CCN(c2ccc(C(F)(F)F)cn2)C3)c1 [Example 73, 7-(5-(Trifluoromethyl)pyridin-2-yl)-5,6,7,8-tetrahydro-N-(3-methoxyphenyl)pyrido[3,4-d]pyrimidin-4-amine]	+ (compound exhibited 0-25% inhibition of calcium ion influx induced by proton stimulation)	> 1000
CSc1nc2c(c(Nc3ccc(C(F)(F)F)cc3)n1)CCN(c1ncccc1S(C)(=O)=O)C2 [Example 63, N-(4-(Trifluoromethyl)phenyl)-5,6,7,8-tetrahydro-7-(3-(methylsulfonyl)pyridin-2-yl)-2-(methylthio)pyrido[3,4-d]pyrimidin-4-amine]	+++ (compound exhibited 51-75% inhibition of calcium ion influx induced by proton stimulation)	101 to 500
CS(=O)(=O)c1cccnc1N1CCc2c(ncnc2Nc2ccc(OC(F)F)cc2)C1 [Example 14, N-(4-(Difluoromethoxy)phenyl)-5,6,7,8-tetrahydro-7-(3-(methylsulfonyl)pyridin-2-yl)pyrido[3,4-d]pyrimidin-4-amine]	+ (compound exhibited 0-25% inhibition of calcium ion influx induced by proton stimulation)	–
c1ccc(CN2CCc3c(ncnc3Nc3cnc4ccccc4c3)C2)cc1 [Example 38, 7-Benzyl-5,6,7,8-tetrahydro-N-(quinolin-3-yl)pyrido[3,4-d]pyrimidin-4-amine]	–	101 to 500
CN1CCOc2cc(Nc3ncnc4c3CCN(c3ncccc3Cl)C4)ccc21 [Example 65, 7-(3-Chloropyridin-2-yl)-5,6,7,8-tetrahydro-N-(3,4-dihydro-4-methyl-2H-benzo[b][1,4]oxazin-7-yl)pyrido[3,4-d]pyrimidin-4-amine]	+++ (compound exhibited 51-75% inhibition of calcium ion influx induced by proton stimulation)	101 to 500
CC1(C)CNc2cc(Nc3ncnc4c3CCN(c3ncccc3Cl)C4)ccc21 [Example 69, 7-(3-Chloropyridin-2-yl)-5,6,7,8-tetrahydro-N-(3,3-dimethylindolin-6-yl)pyrido[3,4-d]pyrimidin-4-amine]	++++ (compound exhibited 76% or greater inhibition of calcium ion influx induced by proton stimulation)	101 to 500
CN1CCC(C)(C)c2ccc(Nc3ncnc4c3CCN(c3ncccc3Cl)C4)cc21 [Example 60, 7-(3-Chloropyridin-2-yl)-5,6,7,8-tetrahydro-N-(1,2,3,4-tetrahydro-1,4,4-trimethylquinolin-7-yl)pyrido[3,4-d]pyrimidin-4-amine]	–	< 100
CC(C)(C#N)c1ccc(Nc2ncnc3c2CCN(c2ncccc2Cl)C3)cc1 [Example 56, 2-(4-(7-(3-Chloropyridin-2-yl)-5,6,7,8-tetrahydropyrido[3,4-d]pyrimidin-4-ylamino)phenyl)-2-methylpropanenitrile]	++++ (compound exhibited 76% or greater inhibition of calcium ion influx induced by proton stimulation)	< 100
CC1(C)CNCc2cc(Nc3ncnc4c3CCN(c3ncccc3Cl)C4)ccc21 [Example 62, 7-(3-chloropyridin-2-yl)-5,6,7,8-tetrahydro-N-(1,2,3,4-tetrahydro-4,4-dimethylisoquinolin-7-yl)pyrido[3,4-d]pyrimidin-4-amine]	–	> 1000
COc1nc2c(c(Nc3ccc(C(F)(F)F)cc3)n1)CCN(c1ncccc1Cl)C2 [Example 27, 7-(3-Chloropyridin-2-yl)-N-(4-(trifluoromethyl)phenyl)-5,6,7,8-tetrahydro-2-methoxypyrido[3,4-d]pyrimidin-4-amine]	–	101 to 500
CC1(C)C(=O)Nc2cc(Nc3ncnc4c3CCN(c3ncccc3Cl)C4)ccc21 [Example 67, 6-(7-(3-Chloropyridin-2-yl)-5,6,7,8-tetrahydropyrido[3,4-d]pyrimidin-4-ylamino)-3,3-dimethylindolin-2-one]	–	> 1000
COCc1nc2c(c(Nc3ccc(C(C)(C)C)cc3)n1)CCN(c1ncccc1C(F)(F)F)C2.Cl [Example 6, (4-tert-Butyl-phenyl)-[2-methoxymethyl-7-(3-trifluoromethyl-pyridin-2-yl)-5,6,7,8-tetrahydro-pyrido[3,4-d]pyrimidin-4-yl]-amine hydrochloride]	++++ (compound exhibited 76% or greater inhibition of calcium ion influx induced by proton stimulation)	< 100
CC1(C)CCNc2cc(Nc3ncnc4c3CCN(c3ncccc3Cl)C4)ccc21 [Example 59, 7-(3-chloropyridin-2-yl)-5,6,7,8-tetrahydro-N-(1,2,3,4-tetrahydro-4,4-dimethylquinolin-7-yl)pyrido[3,4-d]pyrimidin-4-amine]	–	101 to 500
CC(=O)N1Cc2cc(Nc3ncnc4c3CCN(c3ncccc3Cl)C4)ccc2C(C)(C)C1 [Example 61]	–	> 1000
FC(F)(F)c1cccc(CCNc2ncnc3c2CCN(c2ncccc2Cl)C3)c1 [Example 50, N-(3-(Trifluoromethyl)phenethyl)-7-(3-chloropyridin-2-yl)-5,6,7,8-tetrahydropyrido[3,4-d]pyrimidin-4-amine]	+ (compound exhibited 0-25% inhibition of calcium ion influx induced by proton stimulation)	–
CSc1nc2c(c(Nc3ccc(C(F)(F)F)cc3)n1)CCN(c1ncccc1Cl)C2 [Example 24, [7-(3-Chloro-pyridin-2-yl)-2-methylsulfanyl-5,6,7,8-tetrahydro-pyrido[3,4-d]pyrimidin-4-yl]-(4-trifluoromethyl-phenyl)-amine]	–	101 to 500
FC(F)(F)c1ccnc(N2CCc3c(ncnc3Nc3ccc4c(c3)OCCO4)C2)c1 [Example 71, 7-(4-(Trifluoromethyl)pyridin-2-yl)-5,6,7,8-tetrahydro-N-(2,3-dihydrobenzo[b][1,4]dioxin-7-yl)pyrido[3,4-d]pyrimidin-4-amine]	+ (compound exhibited 0-25% inhibition of calcium ion influx induced by proton stimulation)	> 1000
FC(F)(F)c1ccc(Nc2ncnc3c2CCN(c2ccccc2)C3)cc1 [Example 44, 7-(Phenyl)-N-(4-(trifluoromethyl)phenyl)-5,6,7,8-tetrahydropyrido[3,4-d]pyrimidin-4-amine]	+ (compound exhibited 0-25% inhibition of calcium ion influx induced by proton stimulation)	> 1000
FC(F)Oc1ccc(Nc2ncnc3c2CCN(c2ncccc2Cl)C3)cc1 [Example 15, 7-(3-Chloropyridin-2-yl)-N-(4-(difluoromethoxy)phenyl)-5,6,7,8-tetrahydropyrido[3,4-d]pyrimidin-4-amine]	+++ (compound exhibited 51-75% inhibition of calcium ion influx induced by proton stimulation)	101 to 500
Clc1ccc(Nc2ncnc3c2CCN(c2ncccc2Cl)C3)cc1Cl [Example 42, N-(3,4-Dichlorophenyl)-7-(3-chloropyridin-2-yl)-5,6,7,8-tetrahydropyrido[3,4-d]pyrimidin-4-amine]	++ (compound exhibited 26-50% inhibition of calcium ion influx induced by proton stimulation)	–
FC(F)(F)Oc1ccc(Nc2ncnc3c2CCN(c2ncccc2Cl)C3)cc1 [Example 78, 7-(3-Chloropyridin-2-yl)-5,6,7,8-tetrahydro-N-(4-(trifluoromethoxy)-phenyl)pyrido[3,4-d]pyrimidin-4-amine]	++++ (compound exhibited 76% or greater inhibition of calcium ion influx induced by proton stimulation)	< 100
FC(F)(F)Oc1ccc(Nc2ncnc3c2CCN(c2ncccc2C(F)(F)F)C3)cc1 [Example 79, 7-(3-(trifluoromethyl)pyridin-2-yl)-5,6,7,8-tetrahydro-N-(4-(trifluoromethoxy)-phenyl)pyrido[3,4-d]pyrimidin-4-amine]	++++ (compound exhibited 76% or greater inhibition of calcium ion influx induced by proton stimulation)	< 100
